Where two headings read alike, the source gives them in different places.

Series [1] relates to hepatic carcinoma 97H cells. The series is described as follows: MTT antiproliferative assay, 97H cells. To be noted: read-out: IC50 of Against 97H cells. The class given is cell-based, human.
Description: (§1) The cell lines, 97H (human liver cancer cell), Pc9 (human non-small cell lung cancer), HELA (human epithelial cervical cancer cell line), SJSA1 (human osteosarcoma cells), LO2 (human normal liver cells), and HLF (human embryonic lung fibroblast), used in this study were purchased from the Guangzhou ginny ou Biotechnology Co. Ltd. (Guangzhou, China). Cell lines were cultivated in Dulbecco’s Modified Eagle Medium (DMEM) containing 10% (v/v) heat-inactivated fetal bovine serum (FBS), 100 units/mL penicillin, and 100 μg/mL streptomycin.
(§2) For the cytotoxicity assay, the cells grown in the logarithmic phase were seeded into 96-well plates (5 × 10^3 cells/well) for 24 h, and then exposed to different concentrations of the test compounds for 48 h. After the attached cells had been incubated with 5 mg/mL MTT (Sigma, St. Louis, MO, USA) for another 4 h, the suspension was discarded and subsequently the dark blue crystals (formazan) were solubilized in dimethyl sulfoxide (DMSO). Then, the absorbance was measured at 570 nm using a multifunction microplate reader (Molecular Devices, Flex Station 3) (Thermo Fisher Scientific, San Jose, CA, USA), and each experiment was performed at least in triplicate.
Series [2] has as its system Pc9 (human non-small cell lung cancer cells). Nature of the series: MTT antiproliferative assay, Pc9 cells. The class given is cell-based. To be noted: PC-9, 48 h, read-out: IC50 Pc9. For orientation: Formazan colour is commonly taken as a measure of viable cells.
Description: as §1, §2
Series [3] relates to LO2 (human normal liver cells). The series is described as follows: MTT assay, LO2 normal cells. To be noted: 48 h, read-out: IC50 LO2. Format: cell-based.
Description: as §1, §2
The subject of series [4] is Hela (human epithelial cervical cancer cells). Nature of the series: MTT antiproliferative assay, Hela cells. Format: cell-based. The note with it: HeLa, 48 h, read-out: IC50 Hela.
Description: as §1, §2
Series [5] deals with SJSA1 (human osteosarcoma cells). The series is described as follows: MTT antiproliferative assay, SJSA1 cells. Format: cell-based. The note with it: SJSA-1, 48 h, read-out: IC50 SJSA1.
Description: as §1, §2
Series [6] concerns HLF (human embryonic lung fibroblast cells). Nature of the series: MTT assay, HLF normal cells. Format: cell-based. The note with it: 48 h, read-out: IC50 HLF.
Description: as §1, §2
The mark [7] stands for this setting: Homo sapiens, 97H cells, MTT, 48 h.

What is called IC50 is the concentration at which inhibition is half-maximal. For `CC(c1cccc(-c2ncc(SCCCN(C)C)cn2)c1)n1cc(-c2cccc(C#N)c2)cnc1=O` (stereo not shown) [Compound 31b, 5-(3-cyanophenyl)-1-(1-(3-(5-((3-(dimethylamino)propyl)thio)pyrimidin-2-yl)phenyl)ethyl)pyrimidin-2(1H)-one], the IC50 in series [1] (setting [7]) worked out at 149 ± 12 nM.
Take `C[C@@H](c1cccc(-c2ncc(OCC3CCN(C)CC3)cn2)c1)n1cc(-c2cccc(C#N)c2)cnc1=O` [(S)-31e]: in series [1] (setting [7]), the IC50 is 1830 ± 26 nM.
For `CC(c1cccc(-c2ncc(SCCCN(C)C)cn2)c1)n1cc(-c2cccc(C#N)c2)cc(F)c1=O` (stereo not shown) [Compound 39, 5-(3-cyanophenyl)-1-(1-(3-(5-((3-(dimethylamino)propyl)thio)pyrimidin-2-yl)phenyl)ethyl)-3-fluoropyridin-2(1H)-one], the IC50 in series [1] (setting [7]) was found to be 206 ± 13 nM.
Regarding `CC(c1cccc(-c2ncc(OCCN3CCOCC3)cn2)c1)n1cc(-c2cccc(C#N)c2)cnc1=O` (stereo not shown) [Compound 31f, 5-(3-cyanophenyl)-1-(1-(3-(5-(2-morpholinoethoxy)pyrimidin-2-yl)phenyl)ethyl)pyrimidin-2(1H)-one], the IC50 in series [1] (setting [7]) worked out at 248 ± 34 nM.
Usually melting point stands for the temperature of the solid-liquid transition. Turning to `CC(c1cccc(-c2ncc(OCC3CCN(C)CC3)cn2)c1)n1cc(-c2cc(F)cc(F)c2)cnc1=O` (stereo not shown) [Compound 31g, 5-(3,5-difluorophenyl)-1-(1-(3-(5-((1-methylpiperidin-4-yl)methoxy)pyrimidin-2-yl)phenyl)ethyl)pyrimidin-2(1H)-one], the melting point was 86.9 to 88.6 °C. Besides, in series [1] (setting [7]), the IC50 was determined as 332 ± 44 nM.
As for `CN(C)CCCSc1cnc(-c2cccc(Cn3cc(-c4cccc(C#N)c4)cc(F)c3=O)c2)nc1` [Compound 36a, 5-(3-cyanophenyl)-1-(3-(5-((3-(dimethylamino)propyl)thio)pyrimidin-2-yl)benzyl)-3-fluoropyridin-2(1H)-one], the melting point lay in the range of 116.3 to 117.9 °C. In addition, in series [1] (setting [7]), the half-inhibitory concentration (IC50) is 149 ± 35 nM.
For `CN(C)CCCSc1cnc(-c2cccc(Cn3cc(-c4cc(F)cc(F)c4)ncc3=O)c2)nc1` [Compound 11b, 5-(3,5-difluorophenyl)-1-(3-(5-((3-(dimethylamino)propyl)thio)pyrimidin-2-yl)benzyl)pyrazin-2(1H)-one], in that order: 143.7 to 145.2 °C and 9100 ± 670 nM.
Turning to `CN(C)CCCSc1cnc(-c2cccc(Cn3cc(-c4cccc(C#N)c4)cnc3=O)c2)nc1` [Compound 18, 5-(3-cyanophenyl)-1-(3-(5-((3-(dimethylamino)propyl)thio)pyrimidin-2-yl)benzyl)pyrimidin-2(1H)-one], the IC50 is 443 ± 4 nM in series [1] (97H cells, MTT, 48 h) and 360 to 550 nM in series [1] (setting [7]).
`CN1CCC(COc2cnc(-c3cccc(Cn4cc(-c5cccc(C#N)c5)cnc4=O)c3)nc2)CC1` [Compound 25, 5-(3-cyanophenyl)-1-(3-(5-((1-methylpiperidin-4-yl)methoxy)pyrimidin-2-yl)benzyl)pyrimidin-2(1H)-one] displayed a melting point of 116.7 to 118.2 °C. In series [1] (97H cells, MTT, 48 h), the half-inhibitory concentration (IC50) was 361 ± 12 nM. For the same compound, the half-inhibitory concentration (IC50) in series [1] (setting [7]) lay within 360 to 550 nM.
Consider `CC(c1cccc(-c2ncc(SCCN(C)C)cn2)c1)n1cc(-c2cccc(C#N)c2)cnc1=O` (stereo not shown) [Compound 31a, 5-(3-cyanophenyl)-1-(1-(3-(5-((2-(dimethylamino)ethyl)thio)pyrimidin-2-yl)phenyl)ethyl)pyrimidin-2(1H)-one], for which the half-inhibitory concentration (IC50) in series [1] (setting [7]) is 186 ± 7 nM.
In turn, `CN(C)CCCSc1cnc(-c2cccc(Cn3cc(-c4cccc(C#N)c4)ncc3=O)c2)nc1` [Compound 11a, 5-(3-cyanophenyl)-1-(3-(5-((3-(dimethylamino)propyl)thio)pyrimidin-2-yl)benzyl)pyrazin-2(1H)-one] gave a melting point of 106.3 to 107.9 °C. Also, the IC50 in series [1] (97H cells, MTT, 48 h) is 9810 ± 790 nM. Besides, the IC50 in series [1] (setting [7]) is 9800 nM.
On to `CC(c1cccc(-c2ncc(OCCCN(C)C)cn2)c1)n1cc(-c2cccc(C#N)c2)cnc1=O` (stereo not shown) [Compound 31c, 5-(3-cyanophenyl)-1-(1-(3-(5-(3-(dimethylamino)propoxy)pyrimidin-2-yl)phenyl)ethyl)pyrimidin-2(1H)-one], for which the melting point was in the range of 68.3 to 69.9 °C. Besides, the IC50 in series [1] (setting [7]) came out at 216 ± 87 nM.
Compound `CN(C)CCCSc1cnc(-c2cccc(Cn3cc(-c4cncc(F)c4)cc(F)c3=O)c2)nc1` [Compound 36b, 1-(3-(5-((3-(dimethylamino)propyl)thio)pyrimidin-2-yl)benzyl)-5,5′-difluoro-[3,3′-bipyridin]-6(1H)-one] returned a melting point of 128.3 to 129.9 °C. In series [1] (setting [7]), the 50% inhibitory concentration (IC50) is 3810 ± 45 nM.
Regarding `C[C@H](c1cccc(-c2ncc(OCC3CCN(C)CC3)cn2)c1)n1cc(-c2cccc(C#N)c2)cnc1=O` [(R)-31e], the half-inhibitory concentration (IC50) in series [1] (setting [7]) worked out at 18 ± 6 nM.
As to `CN1CCC(COc2cnc(-c3cccc(Cn4nc(-c5cccc(C#N)c5)ccc4=O)c3)nc2)CC1` [Tepotinib, reference compound], the half-inhibitory concentration (IC50) in series [2] was 8105 ± 12 nM; in series [3], 10300 ± 460 nM; in series [4] it was 11200 ± 320 nM; in series [5] it was 12200 ± 350 nM; in series [6] it was 9440 ± 150 nM; in series [1] (Homo sapiens) it was 13 ± 8 nM.
For the compound `CN(C)CCCSc1cnc(-c2cccc(Cn3cc(-c4cncnc4)cc(F)c3=O)c2)nc1` [Compound 36c, 1-(3-(5-((3-(dimethylamino)propyl)thio)pyrimidin-2-yl)benzyl)-3-fluoro-5-(pyrimidin-5-yl)pyridin-2(1H)-one], the IC50 in series [1] (setting [7]) was 671 ± 56 nM.
Turning to `CN(C)CCCOc1cnc(-c2cccc(Cn3cc(-c4cccc(C#N)c4)cnc3=O)c2)nc1` [Compound 22, 5-(3-cyanophenyl)-1-(3-(5-(3-(dimethylamino)propoxy)pyrimidin-2-yl)benzyl)pyrimidin-2(1H)-one], the IC50 in series [1] (setting [7]) was 559 ± 18 nM.
`CC(c1cccc(-c2ncc(OCCN(C)C)cn2)c1)n1cc(-c2cccc(C#N)c2)cnc1=O` (stereo not shown) [Compound 31d, 5-(3-cyanophenyl)-1-(1-(3-(5-(2-(dimethylamino)ethoxy)pyrimidin-2-yl)phenyl)ethyl)pyrimidin-2(1H)-one] displayed a melting point of 53.3 to 55 °C. The IC50 in series [1] (setting [7]) is 196 ± 56 nM.

The values above are taken from publication PMC6470795 (Molecules, 2019).
